From patent US20230257372A1 (CHONG KUN DANG PHARMACEUTICAL CORP., priority 2020, published 2023)

How the values were obtained:
human recombinant HDAC1 = target: T1, human recombinant HDAC1 (Homo sapiens, UniProt Q13547); assay: HDAC1 enzyme activity inhibition (HDAC Fluorimetric Drug Discovery Kit); type: biochemical; conditions: human recombinant HDAC1; IC50 calculated with GraphPad Prism; read-out: HDAC1
T1 construct: purchased Enzo Life Science, Inc. BML-SE456
Procedure, shortened: (§1)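 Five-fold compound dilutions incubated with […] recombinant enzyme and 10 μM fluorogenic Fluor de Lys substrate, 60 min at 30° C. Fluor de Lys Developer II then added for 30 min to generate the fluorescent read-out.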

human recombinant HDAC6 = target: T2, human recombinant HDAC6 (Homo sapiens, UniProt Q9UBN7); assay: HDAC6 enzyme activity inhibition (HDAC Fluorimetric Drug Discovery Kit); type: biochemical; conditions: for HDAC6 selectivity (fold): HDAC1 IC50 / HDAC6 IC50; for IC50: human recombinant HDAC6, IC50 calculated with GraphPad Prism
T2 construct: purchased Calbiochem Inc. 382180
T2 sequence (Q9UBN7 1-1215): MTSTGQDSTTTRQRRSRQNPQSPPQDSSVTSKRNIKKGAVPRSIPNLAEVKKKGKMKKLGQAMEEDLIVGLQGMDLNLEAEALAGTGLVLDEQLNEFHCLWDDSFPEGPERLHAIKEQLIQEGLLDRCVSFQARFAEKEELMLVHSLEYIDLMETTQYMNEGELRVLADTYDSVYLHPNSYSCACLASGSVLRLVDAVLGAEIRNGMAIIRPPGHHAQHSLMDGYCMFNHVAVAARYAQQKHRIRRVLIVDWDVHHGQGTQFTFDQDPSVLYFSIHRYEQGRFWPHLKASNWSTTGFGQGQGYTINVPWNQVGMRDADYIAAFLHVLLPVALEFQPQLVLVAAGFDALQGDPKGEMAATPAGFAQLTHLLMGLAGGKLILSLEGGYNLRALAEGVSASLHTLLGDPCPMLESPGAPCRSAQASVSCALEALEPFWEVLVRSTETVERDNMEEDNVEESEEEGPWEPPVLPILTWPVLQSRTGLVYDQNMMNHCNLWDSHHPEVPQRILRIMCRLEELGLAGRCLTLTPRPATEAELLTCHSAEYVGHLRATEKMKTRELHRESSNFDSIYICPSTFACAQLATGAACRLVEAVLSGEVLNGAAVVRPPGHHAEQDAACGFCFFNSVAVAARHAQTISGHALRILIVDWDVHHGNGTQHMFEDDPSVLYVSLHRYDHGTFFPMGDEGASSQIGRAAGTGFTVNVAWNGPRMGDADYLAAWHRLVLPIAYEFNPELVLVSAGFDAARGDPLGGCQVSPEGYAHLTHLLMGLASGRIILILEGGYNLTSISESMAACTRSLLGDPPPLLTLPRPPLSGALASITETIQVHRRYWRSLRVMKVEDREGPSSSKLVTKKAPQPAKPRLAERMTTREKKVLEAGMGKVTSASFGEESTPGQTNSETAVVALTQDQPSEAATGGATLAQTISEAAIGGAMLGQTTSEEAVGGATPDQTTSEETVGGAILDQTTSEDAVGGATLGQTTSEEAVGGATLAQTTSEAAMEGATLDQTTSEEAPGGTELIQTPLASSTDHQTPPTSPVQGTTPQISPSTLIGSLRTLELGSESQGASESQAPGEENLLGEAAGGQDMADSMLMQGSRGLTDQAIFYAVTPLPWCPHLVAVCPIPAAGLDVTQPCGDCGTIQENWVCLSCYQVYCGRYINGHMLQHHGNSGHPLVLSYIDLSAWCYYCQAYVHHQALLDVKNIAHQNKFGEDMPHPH
Procedure, shortened: as §1

T1 sequence (Q13547 whole entry): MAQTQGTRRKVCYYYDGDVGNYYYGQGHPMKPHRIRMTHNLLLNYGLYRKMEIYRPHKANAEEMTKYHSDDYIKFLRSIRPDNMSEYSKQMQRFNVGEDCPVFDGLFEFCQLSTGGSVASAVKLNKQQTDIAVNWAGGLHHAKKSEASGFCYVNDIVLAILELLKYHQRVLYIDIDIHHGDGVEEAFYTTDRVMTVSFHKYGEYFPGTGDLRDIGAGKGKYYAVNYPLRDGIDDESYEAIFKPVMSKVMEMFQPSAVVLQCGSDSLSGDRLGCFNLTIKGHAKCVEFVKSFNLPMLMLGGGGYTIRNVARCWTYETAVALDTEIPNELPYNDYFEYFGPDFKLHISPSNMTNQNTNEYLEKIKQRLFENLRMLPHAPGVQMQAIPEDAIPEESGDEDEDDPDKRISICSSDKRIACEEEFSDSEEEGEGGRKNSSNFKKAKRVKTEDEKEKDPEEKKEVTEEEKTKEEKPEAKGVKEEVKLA

SMILES | IC50 (human recombinant HDAC1) | HDAC6 selectivity (fold) (human recombinant HDAC6) | IC50 (human recombinant HDAC6)
FC(F)c1nnc(-c2ccc(Cn3cc(-c4cccc(CN5CCOCC5)c4)nn3)cc2)o1 [Compound 4411, 4-(3-(1-(4-(5-(difluoromethyl)-1,3,4-oxadiazol-2-yl)benzyl)-1H-1,2,3-triazol-4-yl)benzyl)morpholine] | > 50000 nM | 662 fold | 75.5 nM
O=S1(=O)CCN(Cc2cccc(-c3cn(Cc4ccc(-c5nnc(C(F)F)o5)cc4)nn3)c2)CC1 [Compound 4412, 4-(3-(1-(4-(5-(difluoromethyl)-1,3,4-oxadiazol-2-yl)benzyl)-1H-1,2,3-triazol-4-yl)benzyl)thiomorpholine 1,1-dioxide] | > 50000 nM | 432 fold | 116 nM
FC(F)c1nnc(-c2ccc(Cn3cc(-c4cccc(CN5CCC(F)(F)CC5)c4)nn3)cc2)o1 [Compound 4413, 2-(difluoromethyl)-5-(4-((4-(3-((4,4-difluoropiperidin-1-yl)methyl)phenyl)-1H-1,2,3-triazol-1-yl)methyl)phenyl)-1,3,4-oxadiazole] | > 50000 nM | 348 fold | 144 nM
CN1CCN(Cc2cccc(-c3cn(Cc4ccc(-c5nnc(C(F)F)o5)cc4)nn3)c2)CC1 [Compound 4414] | > 50000 nM | 627 fold | 79.7 nM
CCN1CCN(Cc2cccc(-c3cn(Cc4ccc(-c5nnc(C(F)F)o5)cc4)nn3)c2)CC1 [Compound 4415, 2-(difluoromethyl)-5-(4-((4-(3-((4-ethylpiperazin-1-yl)methyl)phenyl)-1H-1,2,3-triazol-1-yl)methyl)phenyl)-1,3,4-oxadiazole] | > 50000 nM | 545 fold | 91.7 nM
CC(C)N1CCN(Cc2cccc(-c3cn(Cc4ccc(-c5nnc(C(F)F)o5)cc4)nn3)c2)CC1 [Compound 4416, 2-(difluoromethyl)-5-(4-((4-(3-((4-isopropylpiperazin-1-yl)methyl)phenyl)-1H-1,2,3-triazol-1-yl)methyl)phenyl)-1,3,4-oxadiazole] | > 50000 nM | 427 fold | 112 nM
FC(F)c1nnc(-c2ccc(Cn3cc(-c4cccc(CN5CC(F)(F)C5)c4)nn3)cc2)o1 [Compound 4417, 2-(4-((4-(3-((3,3-difluoroazetidin-1-yl)methyl)phenyl)-1H-1,2,3-triazol-1-yl)methyl)phenyl)-5-(difluoromethyl)-1,3,4-oxadiazole] | > 50000 nM | 487 fold | 102 nM
Fc1cc(-c2nnc(C(F)F)o2)ccc1Cn1cc(-c2cccc(CN3CC(F)(F)C3)c2)nn1 [Compound 4418, 2-(4-((4-(3-((3,3-difluoroazetidin-1-yl)methyl)phenyl)-1H-1,2,3-triazol-1-yl)methyl)-3-fluorophenyl)-5-(difluoromethyl)-1,3,4-oxadiazole] | > 50000 nM | 837 fold | 59.7 nM
CN1CCN(c2cc(-c3cn(Cc4ccc(-c5nnc(C(F)F)o5)cc4)nn3)ccc2F)CC1 [Compound 4419, 2-(difluoromethyl)-5-(4-((4-(4-fluoro-3-(4-methylpiperazin-1-yl)phenyl)-1H-1,2,3-triazol-1-yl)methyl)phenyl)-1,3,4-oxadiazole] | > 50000 nM | 315 fold | 159 nM
CCN1CCN(c2cc(-c3cn(Cc4ccc(-c5nnc(C(F)F)o5)cc4)nn3)ccc2F)CC1 [Compound 4420, 2-(difluoromethyl)-5-(4-((4-(3-(4-ethylpiperazin-1-yl)-4-fluorophenyl)-1H-1,2,3-triazol-1-yl)methyl)phenyl)-1,3,4-oxadiazole] | > 50000 nM | 287 fold | 174 nM
CC(C)N1CCN(c2cc(-c3cn(Cc4ccc(-c5nnc(C(F)F)o5)cc4)nn3)ccc2F)CC1 [Compound 4421, 2-(difluoromethyl)-5-(4-((4-(4-fluoro-3-(4-isopropylpiperazin-1-yl)phenyl)-1H-1,2,3-triazol-1-yl)methyl)phenyl)-1,3,4-oxadiazole] | > 50000 nM | 202 fold | 247 nM
Fc1ccc(-c2cn(Cc3ccc(-c4nnc(C(F)F)o4)cc3)nn2)cc1N1CCN(C2CCC2)CC1 [Compound 4422, 2-(4-((4-(3-(4-cyclobutylpiperazin-1-yl)-4-fluorophenyl)-1H-1,2,3-triazol-1-yl)methyl)phenyl)-5-(difluoromethyl)-1,3,4-oxadiazol] | > 50000 nM | 127 fold | 392 nM
CN1CCN(c2cc(-c3cn(Cc4ccc(-c5nnc(C(F)F)o5)cc4F)nn3)ccc2F)CC1 [Compound 4424, 2-(difluoromethyl)-5-(3-fluoro-4-((4-(4-fluoro-3-(4-methylpiperazin-1-yl)phenyl)-1H-1,2,3-triazol-1-yl)methyl)phenyl)-1,3,4-oxadiazol] | > 50000 nM | 559 fold | 89.4 nM
CC(C)N1CCN(c2cc(-c3cn(Cc4ccc(-c5nnc(C(F)F)o5)cc4F)nn3)ccc2F)CC1 [Compound 4425] | > 50000 nM | 431 fold | 116 nM
Fc1cc(-c2nnc(C(F)F)o2)ccc1Cn1cc(-c2ccc(F)c(N3CCN(C4CCC4)CC3)c2)nn1 [Compound 4426, 2-(4-((4-(3-(4-cyclobutylpiperazin-1-yl)-4-fluorophenyl)-1H-1,2,3-triazol-1-yl)methyl)-3-fluorophenyl)-5-(difluoromethyl)-1,3,4-oxadiazole] | > 50000 nM | 334 fold | 150 nM
Fc1cc(-c2nnc(C(F)F)o2)ccc1Cn1cc(-c2ccc(F)c(N3CCN(C4COC4)CC3)c2)nn1 [Compound 4427, 2-(difluoromethyl)-5-(3-fluoro-4-((4-(4-fluoro-3-(4-(oxetan-3-yl)piperazin-1-yl)phenyl)-1H-1,2,3-triazol-1-yl)methyl)phenyl)-1,3,4-oxadiazole] | > 50000 nM | 548 fold | 91.2 nM
CN1C[C@@H]2C[C@H]1CN2c1cc(-c2cn(Cc3ccc(-c4nnc(C(F)F)o4)cc3)nn2)ccc1F [Compound 4429, 2-(difluoromethyl)-5-(4-((4-(4-fluoro-3-((1S,4S)-5-methyl-2,5-diazabicyclo[2.2.1]heptan-2-yl)phenyl)-1H-1,2,3-triazol-1-yl)methyl)phenyl)-1,3,4-oxadiazole] | > 50000 nM | 747 fold | 66.9 nM
CN1C[C@@H]2C[C@H]1CN2c1cc(-c2cn(Cc3ccc(-c4nnc(C(F)F)o4)cc3F)nn2)ccc1F [Compound 4430, 2-(difluoromethyl)-5-(3-fluoro-4-((4-(4-fluoro-3-((1S,4S)-5-methyl-2,5-diazabicyclo[2.2.1]heptan-2-yl)phenyl)-1H-1,2,3-triazol-1-yl)methyl)phenyl)-1,3,4-oxadiazole] | > 50000 nM | 351 fold | 142 nM
CC(=O)N1CCC(Nc2cccc(-c3cn(Cc4ccc(-c5nnc(C(F)F)o5)cc4F)nn3)c2F)CC1 [Compound 4433, 1-(4-((3-(1-(4-(5-(difluoromethyl)-1,3,4-oxadiazol-2-yl)-2-fluorobenzyl)-1H-1,2,3-triazol-4-yl)-2-fluorophenyl)amino)piperidin-1-yl)ethan-1-one] | > 50000 nM | 1510 fold | 33.1 nM
CCCN1CCC(Nc2cccc(-c3cn(Cc4ccc(-c5nnc(C(F)F)o5)cc4F)nn3)c2F)CC1 [Compound 4434, N-(3-(1-(4-(5-(difluoromethyl)-1,3,4-oxadiazol-2-yl)-2-fluorobenzyl)-1H-1,2,3-triazol-4-yl)-2-fluorophenyl)-1-propylpiperidin-4-amine] | > 50000 nM | 2392 fold | 20.9 nM
